Measured values: PMC6263361 (Molecules, 2011)
pIC50, pKd: −log10 of the molar value. Read-outs that look alike come from different tables or passages of the source.

How the values were obtained:
[1] = system: control peptide HG102 (SGVMLGDPN); test: SPR interaction analysis between etoposide and control peptide HG102; type: binding; conditions: etoposide 3.2-80 µM injected
Experimental: Synthetic ETBP16 or ETBP10 was immobilized on a CM5 censor chip by an amine coupling reaction. […] By contrast, no response was observed against a control peptide HG102 ([…]).
(§1) Analysis of binding between etopside and synthetic ETBP or recombinant GST-E2F-4 was performed with a surface plasmon resonance (SPR) biosensor (Biacore®3000, GE Healthcare). The synthetic ETBP or protein dissolved in each buffer (ETBP16: 10 mM acetate buffer, pH 4.0−10% DMSO; ETBP10, HG102: 10 mM carbonate buffer, pH 8.5; protein: 10 mM acetate buffer, pH 4.0) was injected over a CM5 sensor chip at 10 µL/min and captured on the carboxymethyl dextran matrix via an amine coupling reaction. The surface was activated by injecting a solution containing 200 mM EDC and 50 mM NHS for 14 min. The protein or peptide was injected and the surface was then blocked by injecting 1 M ethanolamine at pH 8.5 for 14 min. This reaction immobilized 1279 resonance units (RU) of ETBP16, 3400 RU of ETBP10, 350 RU of HG102, 11421 RU of GST-E2F-4, 4388 RU of GST, and 7500 RU of top II (usb). […] BIAevaluation 3.2 software (GE Healthcare) was used to determine the kinetic parameters.

CHO-K1 cells = test: MTS assay of cell proliferation; type: cell-based; conditions: concentrations used in the reporter assay; data not shown
E2F-4/DP2 = target: T1, E2F-4/DP2 (Homo sapiens, UniProt Q16254); test: Luciferase reporter gene assay, E2F-4/DP2 expressing CHO-K1 cells; type: cell-based; conditions: 15 h incubation, read-out: IC50 of reporter gene transcription, E2F-4/DP2
T1 construct: expressed in transfected cells; host or cells: CHO-K1
Source text: (§2) E2F-4 functions as a transcription factor, forming a heterodimeric complex with DP via the DP binding domain (G86-I181) (Figure 9).
(§3) The vectors (pCMV-E2F-4, pCMV-DP1, pCMV-DP2) for the luciferase reporter gene assay were kindly provided by Dr. Junji Magae (Institute of Research and Innovation (IRI), Kashiwa, Chiba, Japan) The reporter gene plasmid (pGL3-GC box) was constructed by insertion of double stranded DNA with XhoI and HindIII site, which was generated by an annealing of 60 pmol of oligonucleotides 5’-[…]-3’ and 5’-[…]-3’ into pGL3 vector (Promega). Transfection was then performed using Lipofectamine 2000 (Invitrogen) in a 96-well format according to the manufacturer’s instructions (Invitrogen).

E2F-4/DP1 = target: T2, E2F-4/DP1 (Homo sapiens, UniProt Q16254); test: Luciferase reporter gene assay, E2F-4/DP1 expressing CHO-K1 cells; type: cell-based; conditions: 15 h incubation, read-out: IC50 of reporter gene transcription, E2F-4/DP1
T2 construct: expressed in transfected cells; host or cells: CHO-K1
Source text: as §2, §3

GST = GST (Schistosoma japonicum, UniProt P08515); test: SPR interaction analysis with immobilized GST tag alone; type: binding; conditions: etoposide 2.5-100 µM injected
Experimental: (§4) The gene encoding E2F-4 protein was engineered into an E. coli expression system as a GST fusion protein (GST-E2F-4) and purified by affinity interaction using glutathione Sepharose beads. The GST-E2F-4 was immobilized on a CM5 sensor chip using the same procedure as described for the synthetic ETBP.
as §1, with “min.” for “min. This reaction immobilized 1279 resonance units (RU) of ETBP16, 3400 RU of ETBP10, 350 RU of HG102, 11421 RU of GST-E2F-4, 4388 RU of GST, and 7500 RU of top II (usb).”

GST-E2F-4 = target: T3, GST-E2F-4 (Homo sapiens, UniProt Q16254); test: SPR interaction analysis with immobilized recombinant GST-E2F-4; type: binding; conditions: for affinity for E2F-4, fold weaker than that of etoposide: relative to etoposide
T3 construct: The 1239-bp cDNA fragment of E2F-4 was amplified from I.M.A.G.E cDNA clone; made in house; host or cells: E. coli BL21(DE3)pLysS
Source text: as §4
The 1239-bp cDNA fragment of E2F-4 was amplified from I.M.A.G.E cDNA clone (clone ID CL0B005ZB12, Invitrogen) by PCR with the primers 5’-[…]-3’ (up) and 5’-[…]-3’ (down) and subcloned into pGEM-T vector (Promega). Following purification and digestion with EcoRI and XhoI, the cDNA fragment was subcloned into the expression vector pET28a(+) (Novagen). The construct was transformed into E. coli BL21(DE3)pLysS (Novagen). Heterologous gene expression was induced by addition of 0.1 mM isopropyl β-D-1-thiogaractopyranoside (IPTG). The culture was continued at 37 °C with vigorous shaking for 1 h. The cells were then harvested and suspended in binding buffer (0.5 M NaCl, 5 mM 2-mercaptoethanol in 50 mM sodium phosphate, pH 7.5). Following sonication and centrifugation the soluble fraction was obtained and purified using the FPLC instrument and GSTrap column (1 mL, GE Healthcare) and then subjected to kinetic analysis by SPR. The purified GST-E2F-4 in resulting fraction was detected by a SDS-PAGE followed by CBB staining or Western blotting using rabbit anti-GST (primary) and anti-rabbit IgG-AP conjugate (secondary) antibodies (Sigma-Aldrich) with BCIP/NBT solution.
as §1, with “min.” for “min. This reaction immobilized 1279 resonance units (RU) of ETBP16, 3400 RU of ETBP10, 350 RU of HG102, 11421 RU of GST-E2F-4, 4388 RU of GST, and 7500 RU of top II (usb).”

[2] = SPR, read-out: KD between GST-E2F-4 and each compound

T3 sequence (Q16254 whole entry, the tested form may be a part): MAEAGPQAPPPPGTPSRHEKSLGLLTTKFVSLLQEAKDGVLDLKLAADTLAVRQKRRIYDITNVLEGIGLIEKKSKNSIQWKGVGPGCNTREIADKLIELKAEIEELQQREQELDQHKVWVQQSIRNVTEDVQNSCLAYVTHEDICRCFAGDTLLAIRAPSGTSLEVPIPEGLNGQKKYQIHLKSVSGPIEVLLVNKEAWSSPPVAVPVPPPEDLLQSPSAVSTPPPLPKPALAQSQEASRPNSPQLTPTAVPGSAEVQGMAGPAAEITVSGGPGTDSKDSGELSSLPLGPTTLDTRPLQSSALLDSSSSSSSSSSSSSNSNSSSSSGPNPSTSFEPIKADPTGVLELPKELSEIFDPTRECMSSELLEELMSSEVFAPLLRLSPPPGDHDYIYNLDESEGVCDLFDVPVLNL
T2 sequence (Q16254 whole entry, species assumed): as the sequence (Q16254 whole entry, the tested form may be a part) above
T1 sequence (Q16254 whole entry, species assumed): as the sequence (Q16254 whole entry, the tested form may be a part) above
Chain of GST (P08515 whole entry, the tested form may be a part): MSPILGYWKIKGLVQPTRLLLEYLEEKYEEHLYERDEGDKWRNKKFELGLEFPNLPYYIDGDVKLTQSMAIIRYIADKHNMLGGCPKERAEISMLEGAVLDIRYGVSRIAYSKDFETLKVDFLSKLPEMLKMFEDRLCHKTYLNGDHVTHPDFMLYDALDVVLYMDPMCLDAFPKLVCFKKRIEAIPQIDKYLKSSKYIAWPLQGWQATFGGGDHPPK

Question: What does the source list for COc1cc([C@@H]2c3cc4c(cc3[C@@H](O[C@@H]3O[C@@H]5CO[C@@H](C)O[C@H]5[C@H](O)[C@H]3O)[C@H]3COC(=O)[C@H]23)OCO4)cc(OC)c1O [Etoposide]?
Answer: SPR response against control peptide HG102 [1]: no response; effect in terms of cell growth in MTS assay (CHO-K1 cells): no effect; pIC50 (E2F-4/DP2): 5.94; pIC50 (E2F-4/DP1): 5.81; SPR response against GST tag alone (GST): did not show any response; pKd (GST-E2F-4; [2]): 4.12

Question: COc1cc([C@@H]2c3cc4c(cc3[C@H](O)[C@H]3COC(=O)[C@H]23)OCO4)cc(OC)c1OC [Podophyllotoxin, podophyllotoxin] was tested. Which pKd (GST-E2F-4) did it give?
Answer: Its pKd is 3.51.

Question: And the “affinity for E2F-4, fold weaker than that of etoposide” value (GST-E2F-4; SPR)?
Answer: Its value is “approximately four”.

Question: For COc1cc(C(=O)O)cc(OC)c1O [Syringic acid], which “SPR response against GST-E2F-4” value (GST-E2F-4; in the concentration range tested) is on record?
Answer: The value was “no response”.

Question: How did the “affinity for E2F-4, fold weaker than that of etoposide” value (GST-E2F-4; SPR) turn out when COc1cc([C@@H]2c3cc4c(cc3[C@@H](O[C@@H]3O[C@@H]5CO[C@@H](c6cccs6)O[C@H]5[C@H](O)[C@H]3O)[C@H]3COC(=O)[C@H]23)OCO4)cc(OC)c1O [Teniposide, teniposide] was run?
Answer: Its value is “nine”.

Question: And the pKd (GST-E2F-4; [2])?
Answer: The pKd was 3.18.
